Reference: ChEMBL document CHEMBL3797052 (Eur J Med Chem, 2016)

System: not listed separately
Assay: Antiproliferative activity against human Hs 578T cells assessed as cell growth at 10^-5 M after 48 hrs by sulforhodamine B assay
Format: functional
Settings: read-out: Activity

Row | Structure (SMILES) | growth at 10 µM [%]
1 | CNC(=O)c1cc(Oc2ccc3nc(NC(=O)Nc4ccc(Cl)cc4)sc3c2)ccn1 | 30.1

System: not listed separately
Assay: Antiproliferative activity against human SW620 cells assessed as cell growth at 10^-5 M after 48 hrs by sulforhodamine B assay
Format: functional
Settings: SW-620, 48 h, read-out: Activity

Row | Structure (SMILES) | growth at 10 µM [%]
2 | CNC(=O)c1cc(Oc2ccc3nc(NC(=O)Nc4ccc(Cl)cc4)sc3c2)ccn1 | 101

System: not listed separately
Assay: Antiproliferative activity against human HL-60(TB) cells assessed as cell growth at 10^-5 M after 48 hrs by sulforhodamine B assay
Format: functional
Settings: HL-60, 48 h, read-out: Activity

Row | Structure (SMILES) | growth at 10 µM [%]
3 | CNC(=O)c1cc(Oc2ccc3nc(NC(=O)Nc4ccc(Cl)cc4)sc3c2)ccn1 | 98.9

System: not listed separately
Assay: Antiproliferative activity against human BT549 cells assessed as cell growth at 10^-5 M after 48 hrs by sulforhodamine B assay
Format: functional
Settings: BT-549, 48 h, read-out: Activity

Row | Structure (SMILES) | growth at 10 µM [%]
4 | CNC(=O)c1cc(Oc2ccc3nc(NC(=O)Nc4ccc(Cl)cc4)sc3c2)ccn1 | 102

System: not listed separately
Assay: Cytotoxicity against human SKBR3 cells assessed as growth inhibition at 10 uM after 2 days by MTT assay
Format: functional
Settings: SK-BR-3, 48 h, read-out: GI

Row | Structure (SMILES) | inhibition of growth at 10 µM [%]
5 | CNC(=O)c1cc(Oc2ccc3nc(NC(=O)Nc4ccc(Cl)cc4)sc3c2)ccn1 | 50.8

System: MDA-MB-435
Assay: Antiproliferative activity against human MDA-MB-435 cells assessed as cell growth at 10^-5 M after 48 hrs by sulforhodamine B assay
Format: functional
Settings: MDA-MB-435, 48 h, read-out: Activity

Row | Structure (SMILES) | growth at 10 µM [%]
6 | CNC(=O)c1cc(Oc2ccc3nc(NC(=O)Nc4ccc(Cl)cc4)sc3c2)ccn1 | 64.1

System: not listed separately
Assay: Antiproliferative activity against human LOXIMVI cells assessed as cell growth at 10^-5 M after 48 hrs by sulforhodamine B assay
Format: functional
Settings: LOX IMVI, read-out: Activity

Row | Structure (SMILES) | growth at 10 µM [%]
7 | CNC(=O)c1cc(Oc2ccc3nc(NC(=O)Nc4ccc(Cl)cc4)sc3c2)ccn1 | 51.6

System: not listed separately
Assay: Antiproliferative activity against human HCT116 cells assessed as cell growth at 10^-5 M after 48 hrs by sulforhodamine B assay
Format: functional
Settings: HCT-116, 48 h, read-out: Activity

Row | Structure (SMILES) | growth at 10 µM [%]
8 | CNC(=O)c1cc(Oc2ccc3nc(NC(=O)Nc4ccc(Cl)cc4)sc3c2)ccn1 | 47.3

System: not listed separately
Assay: Antiproliferative activity against human Caki1 cells assessed as cell growth at 10^-5 M after 48 hrs by sulforhodamine B assay
Format: functional
Settings: CAKI-1, 48 h, read-out: Activity

Row | Structure (SMILES) | growth at 10 µM [%]
9 | CNC(=O)c1cc(Oc2ccc3nc(NC(=O)Nc4ccc(Cl)cc4)sc3c2)ccn1 | 94.7

System: HT-29
Assay: Antiproliferative activity against human HT-29 cells assessed as cell growth at 10^-5 M after 48 hrs by sulforhodamine B assay
Format: functional
Settings: HT-29, 48 h, read-out: Activity

Row | Structure (SMILES) | growth at 10 µM [%]
10 | CNC(=O)c1cc(Oc2ccc3nc(NC(=O)Nc4ccc(Cl)cc4)sc3c2)ccn1 | 68.8

System: not listed separately
Assay: Cytotoxicity against human SKBR3 cells assessed as growth inhibition at 100 uM after 2 days by MTT assay
Format: functional
Settings: SK-BR-3, 48 h, read-out: GI

Row | Structure (SMILES) | inhibition of growth at 100 µM [%]
11 | CNC(=O)c1cc(Oc2ccc3nc(NC(=O)Nc4ccc(Cl)cc4)sc3c2)ccn1 | 77.4

System: not listed separately
Assay: Cytotoxicity against human HCT116 cells assessed as growth inhibition at 100 uM after 2 days by MTT assay
Format: functional
Settings: HCT-116, 48 h, read-out: GI

Row | Structure (SMILES) | inhibition of growth at 100 µM [%]
12 | CNC(=O)c1cc(Oc2ccc3nc(NC(=O)Nc4ccc(Cl)cc4)sc3c2)ccn1 | 85.2

System: A498
Assay: Antiproliferative activity against human A498 cells assessed as cell growth at 10^-5 M after 48 hrs by sulforhodamine B assay
Format: functional
Settings: A498, 48 h, read-out: Activity

Row | Structure (SMILES) | growth at 10 µM [%]
13 | CNC(=O)c1cc(Oc2ccc3nc(NC(=O)Nc4ccc(Cl)cc4)sc3c2)ccn1 | 117

System: not listed separately
Assay: Antiproliferative activity against human COLO205 cells assessed as cell growth at 10^-5 M after 48 hrs by sulforhodamine B assay
Format: functional
Settings: COLO 205, 48 h, read-out: Activity

Row | Structure (SMILES) | growth at 10 µM [%]
14 | CNC(=O)c1cc(Oc2ccc3nc(NC(=O)Nc4ccc(Cl)cc4)sc3c2)ccn1 | 79.4

System: T47D
Assay: Antiproliferative activity against human T47D cells assessed as cell growth at 10^-5 M after 48 hrs by sulforhodamine B assay
Format: functional
Settings: read-out: Activity

Row | Structure (SMILES) | growth at 10 µM [%]
15 | CNC(=O)c1cc(Oc2ccc3nc(NC(=O)Nc4ccc(Cl)cc4)sc3c2)ccn1 | 44

System: not listed separately
Assay: Antiproliferative activity against human SF539 cells assessed as cell growth at 10^-5 M after 48 hrs by sulforhodamine B assay
Format: functional
Settings: SF-539, 48 h, read-out: Activity

Row | Structure (SMILES) | growth at 10 µM [%]
16 | CNC(=O)c1cc(Oc2ccc3nc(NC(=O)Nc4ccc(Cl)cc4)sc3c2)ccn1 | 83.5

System: Malme-3M
Assay: Antiproliferative activity against human MALME-3M cells assessed as cell growth at 10^-5 M after 48 hrs by sulforhodamine B assay
Format: functional
Settings: read-out: Activity

Row | Structure (SMILES) | growth at 10 µM [%]
17 | CNC(=O)c1cc(Oc2ccc3nc(NC(=O)Nc4ccc(Cl)cc4)sc3c2)ccn1 | 17.7

System: not listed separately
Assay: Antiproliferative activity against human SF268 cells assessed as cell growth at 10^-5 M after 48 hrs by sulforhodamine B assay
Format: functional
Settings: SF-268, 48 h, read-out: Activity

Row | Structure (SMILES) | growth at 10 µM [%]
18 | CNC(=O)c1cc(Oc2ccc3nc(NC(=O)Nc4ccc(Cl)cc4)sc3c2)ccn1 | 56.2

System: KM12
Assay: Antiproliferative activity against human KM12 cells assessed as cell growth at 10^-5 M after 48 hrs by sulforhodamine B assay
Format: functional
Settings: KM12, 48 h, read-out: Activity

Row | Structure (SMILES) | growth at 10 µM [%]
19 | CNC(=O)c1cc(Oc2ccc3nc(NC(=O)Nc4ccc(Cl)cc4)sc3c2)ccn1 | 70

System: K562
Assay: Antiproliferative activity against human K562 cells assessed as cell growth at 10^-5 M after 48 hrs by sulforhodamine B assay
Format: functional
Settings: K562, 48 h, read-out: Activity

Row | Structure (SMILES) | growth at 10 µM [%]
20 | CNC(=O)c1cc(Oc2ccc3nc(NC(=O)Nc4ccc(Cl)cc4)sc3c2)ccn1 | 65.6

System: not listed separately
Assay: Antiproliferative activity against human OVCAR4 cells assessed as cell growth at 10^-5 M after 48 hrs by sulforhodamine B assay
Format: functional
Settings: OVCAR-4, 48 h, read-out: Activity

Row | Structure (SMILES) | growth at 10 µM [%]
21 | CNC(=O)c1cc(Oc2ccc3nc(NC(=O)Nc4ccc(Cl)cc4)sc3c2)ccn1 | 13

System: not listed separately
Assay: Antiproliferative activity against human HCC2998 cells assessed as cell growth at 10^-5 M after 48 hrs by sulforhodamine B assay
Format: functional
Settings: HCC 2998, 48 h, read-out: Activity

Row | Structure (SMILES) | growth at 10 µM [%]
22 | CNC(=O)c1cc(Oc2ccc3nc(NC(=O)Nc4ccc(Cl)cc4)sc3c2)ccn1 | 86.5

System: not listed separately
Assay: Antiproliferative activity against human DU145 cells assessed as cell growth at 10^-5 M after 48 hrs by sulforhodamine B assay
Format: functional
Settings: DU-145, 48 h, read-out: Activity

Row | Structure (SMILES) | growth at 10 µM [%]
23 | CNC(=O)c1cc(Oc2ccc3nc(NC(=O)Nc4ccc(Cl)cc4)sc3c2)ccn1 | 53.2

System: not listed separately
Assay: Antiproliferative activity against human HCT15 cells assessed as cell growth at 10^-5 M after 48 hrs by sulforhodamine B assay
Format: functional
Settings: HCT-15, 48 h, read-out: Activity

Row | Structure (SMILES) | growth at 10 µM [%]
24 | CNC(=O)c1cc(Oc2ccc3nc(NC(=O)Nc4ccc(Cl)cc4)sc3c2)ccn1 | 84.8

System: not listed separately
Assay: Cytotoxicity against human HCT116 cells assessed as growth inhibition at 10 uM after 2 days by MTT assay
Format: functional
Settings: HCT-116, 48 h, read-out: GI

Row | Structure (SMILES) | inhibition of growth at 10 µM [%]
25 | CNC(=O)c1cc(Oc2ccc3nc(NC(=O)Nc4ccc(Cl)cc4)sc3c2)ccn1 | 57.4

System: not listed separately
Assay: Antiproliferative activity against human UO31 cells assessed as cell growth at 10^-5 M after 48 hrs by sulforhodamine B assay
Format: functional
Settings: UO-31, 48 h, read-out: Activity

Row | Structure (SMILES) | growth at 10 µM [%]
26 | CNC(=O)c1cc(Oc2ccc3nc(NC(=O)Nc4ccc(Cl)cc4)sc3c2)ccn1 | 62.5

System: NCI-H322M
Assay: Antiproliferative activity against human NCI-H322M cells assessed as cell growth at 10^-5 M after 48 hrs by sulforhodamine B assay
Format: functional
Settings: read-out: Activity

Row | Structure (SMILES) | growth at 10 µM [%]
27 | CNC(=O)c1cc(Oc2ccc3nc(NC(=O)Nc4ccc(Cl)cc4)sc3c2)ccn1 | 66.8

System: SK-MEL-2
Assay: Antiproliferative activity against human SK-MEL-2 cells assessed as cell growth at 10^-5 M after 48 hrs by sulforhodamine B assay
Format: functional
Settings: SK-MEL-2, 48 h, read-out: Activity

Row | Structure (SMILES) | growth at 10 µM [%]
28 | CNC(=O)c1cc(Oc2ccc3nc(NC(=O)Nc4ccc(Cl)cc4)sc3c2)ccn1 | 81.1

System: not listed separately
Assay: Antiproliferative activity against human SNB19 cells assessed as cell growth at 10^-5 M after 48 hrs by sulforhodamine B assay
Format: functional
Settings: SNB-19, 48 h, read-out: Activity

Row | Structure (SMILES) | growth at 10 µM [%]
29 | CNC(=O)c1cc(Oc2ccc3nc(NC(=O)Nc4ccc(Cl)cc4)sc3c2)ccn1 | 59.3

System: not listed separately
Assay: Antiproliferative activity against human HOP92 cells assessed as cell growth at 10^-5 M after 48 hrs by sulforhodamine B assay
Format: functional
Settings: HOP-92, 48 h, read-out: Activity

Row | Structure (SMILES) | growth at 10 µM [%]
30 | CNC(=O)c1cc(Oc2ccc3nc(NC(=O)Nc4ccc(Cl)cc4)sc3c2)ccn1 | 63.3

System: not listed separately
Assay: Antiproliferative activity against human HOP62 cells assessed as cell growth at 10^-5 M after 48 hrs by sulforhodamine B assay
Format: functional
Settings: HOP-62, 48 h, read-out: Activity

Row | Structure (SMILES) | growth at 10 µM [%]
31 | CNC(=O)c1cc(Oc2ccc3nc(NC(=O)Nc4ccc(Cl)cc4)sc3c2)ccn1 | 6.54

System: not listed separately
Assay: Antiproliferative activity against human OVCAR8 cells assessed as cell growth at 10^-5 M after 48 hrs by sulforhodamine B assay
Format: functional
Settings: OVCAR-8, 48 h, read-out: Activity

Row | Structure (SMILES) | growth at 10 µM [%]
32 | CNC(=O)c1cc(Oc2ccc3nc(NC(=O)Nc4ccc(Cl)cc4)sc3c2)ccn1 | 57.2

System: not listed separately
Assay: Antiproliferative activity against human RPMI8226 cells assessed as cell growth at 10^-5 M after 48 hrs by sulforhodamine B assay
Format: functional
Settings: RPMI-8226, 48 h, read-out: Activity

Row | Structure (SMILES) | growth at 10 µM [%]
33 | CNC(=O)c1cc(Oc2ccc3nc(NC(=O)Nc4ccc(Cl)cc4)sc3c2)ccn1 | 81.7

System: MDA-MB-468
Assay: Antiproliferative activity against human MDA-MB-468 cells assessed as cell growth at 10^-5 M after 48 hrs by sulforhodamine B assay
Format: functional
Settings: MDA-MB-468, 48 h, read-out: Activity

Row | Structure (SMILES) | growth at 10 µM [%]
34 | CNC(=O)c1cc(Oc2ccc3nc(NC(=O)Nc4ccc(Cl)cc4)sc3c2)ccn1 | 55.1

System: NCI-H522
Assay: Antiproliferative activity against human NCI-H522 cells assessed as cell growth at 10^-5 M after 48 hrs by sulforhodamine B assay
Format: functional
Settings: NCI-H522, 48 h, read-out: Activity

Row | Structure (SMILES) | growth at 10 µM [%]
35 | CNC(=O)c1cc(Oc2ccc3nc(NC(=O)Nc4ccc(Cl)cc4)sc3c2)ccn1 | 78
